# Assay results reported in US4980163A, “Novel bacteriocin compositions for use as enhanced broad range bactericides and methods of preventing and treating microbial infection” (Public Health Research Institute of the City of New York, priority 1989, dated 1990).
# Several values for one entry are separate records, joined by “and”; a condition that tells them apart may be missing. Equal entries are not always repeated. Where no end group is shown, it is not given here.
# Tested on: Staphylococcus aureus
# Assay: Bactericidal activity in milk, percent bacterial survival (Example 1, Table 1)
# Assay type: cell-based
# Conditions: for % survival 2 hr: initial viable counts 5 × 10^7 cfu/ml
# Method: All tests in the following examples were performed at 37° C. The efficacy of the enhanced broad range bactericides was determined by assaying bactericidal activity as measured by the percent bacterial survival after treatment with the bactericide. Generally, after incubation of a 10^7 cell per ml suspension of target species with the novel bactericide for specified lengths of time, bacteria were collected by centrifugation for 2 minutes. The bacterial pellet was washed free of the bactericide with a rescue buffer, termed herein Phage buffer (50 mM Tris-HCl buffer pH 7.8, 1 mM MgSO4, 4 mM CaCl2, 0.1M NaCl, and 0.1% gelatin), resuspended and serially diluted into Phage buffer, and 100 μl of the suspended bacteria were spread on nutrient agar plates. Surviving bacteria were determined by scoring colony forming units (CFU) after incubation for 24-48 hours at 37° C. An effective bactericide according to this invention is one which allows less than 0.1% of the initial viable count of the bacteria to survive.
# Staphylococcus aureus cells were suspended and incubated in milk at 37° C. for 2 hours with various concentrations of lysostaphin, nisin, or a combination of lysostaphin and nisin in the milk. The bactericidal efficacy of the bactericides was estimated by determining the percent survival of bacteria as described above.
Substance,"% survival 2 hr (Nisin 0.2 μg/ml, Lysostaphin 0, milk, 37° C.) [%]","% survival 2 hr (Nisin 0.5 μg/ml, Lysostaphin 0, milk, 37° C.) [%]","% survival 2 hr (Nisin 1.0 μg/ml, Lysostaphin 0, milk, 37° C.) [%]","% survival 2 hr (Nisin 2.0 μg/ml, Lysostaphin 0, milk, 37° C.)","% survival 2 hr (Nisin 4.0 μg/ml, Lysostaphin 0, milk, 37° C.) [%]","bactericidal activity in milk (in words) (milk, 37° C.)","% survival 2 hr (Lysostaphin 1.0 μg/ml, Nisin 0, milk, 37° C.)",log reduction in viable cells (Lysostaphin alone 1.0 μg/ml in milk)
"Nisin (ITSISLCTPGCKTGALMGCNMKTATCHCSIHVSK; also: lantibiotic nisin-A: lanthionine rings and dehydrated residues, places not given here; UniProt P13068 24-57, looked up) [lanthionine containing peptide bacteriocin produced by Streptococcus lactis]",45,33,9,2.5% and 0.5%,0.5,little practical bactericidal activity,,
Lysostaphin,,,,,,,< 10^-3%,more than a five log reduction
